Test: Sensory evaluation of sweetness linger and sugar-like taste by a panel of experts
Format: in vivo
Design: key: 0=no sweetness linger; 1=very slight sweetness linger; 2=slight sweetness linger; 3=moderate sweetness linger; 4=moderately high sweetness linger; 5=high sweetness linger
Procedure: As used herein, the phrases “sugar-like characteristic,” “sugar-like taste,” “sugar-like sweet,” “sugary,” and “sugar-like” are synonymous. […] These characteristics are dimensions in which the taste of sucrose is different from the tastes of natural and synthetic high-potency sweeteners. Whether or not a characteristic is more sugar-like is determined by expert sensory panel assessments of sugar and compositions comprising at least one natural and/or synthetic high-potency sweetener, both with and without a sweet taste improving composition. Such assessments quantify similarities of the characteristics of compositions comprising at least one natural and/or synthetic high-potency sweetener, both with and without a sweet taste improving composition, with those comprising sugar. Suitable procedures for determining whether a composition has a more sugar-like taste are well known in the art.
In a particular embodiment, a panel of assessors is used to measure the reduction of sweetness linger. Briefly described, a panel of assessors (generally 8 to 12 individuals) is trained to evaluate sweetness perception and measure sweetness at several time points from when the sample is initially taken into the mouth until 3 minutes after it has been expectorated. […] A decrease in score for a time point measured after the sample has cleared the mouth indicates there has been a reduction in sweetness perception.
The panel of assessors may be trained using procedures well known to those of ordinary skill in the art. In a particular embodiment, the panel of assessors may be trained using the Spectrum™ Descriptive Analysis Method (Meilgaard et al, Sensory Evaluation Techniques 3rd edition, Chapter 11). […]
Sensory evaluation of the samples prepared in Example Set G was carried out under the following protocol, similar to that described hereinabove. […] Immediately upon sensing maximal sweetness, the sample was expectorated, the mouth was rinsed with water and the rate of sweetness decay (“Sweetness Linger”) was measured, where attention was focused on the sweetness 3-4 min after the water rinse. […]

rebaudioside A
5: sweetness linger (400 ppm REBA in citric acid/potassium citrate composition equivalent to that in a diet lemon-lime beverage, with or without additive, scale 0-5, sweetness 3-4 min after water rinse) | sweetness linger (500 ppm REBA in carbon-treated water, phosphoric acid (75%) to pH 2.4-2.5, with or without additive, scale 0-5) | Sweetness Linger rating defined for controls (scale anchors defined by the protocol, REBA control sample at 500 ppm)

Source: US8956677B2, “High-potency sweetener composition with glucosamine and compositions sweetened therewith” (The Coca-Cola Company, priority 2005, dated 2015)
